Laboratory results as given in US7022667B2, “O-derivatized nocathiacin derivatives” (Bristol-Myers Squibb Company, priority 2002, dated 2006).
≈ marks a conversion by molar mass, not a printed value.

Key:
Experiment in all cases: MIC, broth micro dilution assay (NCCLS)
Format in all cases: cell-based
[1] = tested on: Enterococcus faecalis A20688; details: Mueller-Hinton medium, 35° C., 18 hours
Description: (§1) The serial broth dilution method used Mueller-Hinton medium except for the Streptococcus pneumoniae which was tested in 50% Mueller-Hinton medium and 50% Todd Hewitt medium. The final bacterial inoculate contained approximately 5×10^5 cfu/well and was run on microtiter plates. The volume of each well was 100 μL and the plates were incubated at 35° C. for 18 hours in ambient air. The MIC was defined as the lowest drug concentration that prevented visible growth.

[2] = tested on: Staphylococcus aureus A15090; details: Mueller-Hinton medium, 35° C., 18 hours
Description: as §1

[3] = tested on: Streptococcus pneumoniae A28272; details: 50% Mueller-Hinton medium and 50% Todd Hewitt medium, 35° C., 18 hours
Description: as §1

| SMILES | MIC (μg/mL) Enterococcus faecalis A20688 [1] [µg/mL] | MIC (μg/mL) Staphylococcus aureus A15090 [2] [µg/mL] | MIC (μg/mL) Streptococcus pneumoniae A28272 [3] [µg/mL] |
| --- | --- | --- | --- |
| C=C(NC(=O)c1csc(-c2nc3c(cc2O)-c2nc(cs2)C(=O)NC(C(C)O)C(=O)NC(=C(C)OC)c2nc(cs2)C(=O)NC2c4nc(cs4)C(=O)NC(COC(=O)c4c5c6c(cccc6n4OCCCNC(=N)N)COC(=O)C(OC4CC(C)(O)C(N(C)C)C(C)O4)C2OC5)c2nc-3cs2)n1)C(N)=O (stereo not drawn) [Example 48] | 2 (≈ 1.3 µM) | 1.0 (≈ 0.651 µM) | 0.03 (≈ 0.0195 µM) |
| C=C(NC(=O)c1csc(-c2nc3c(cc2OCOP(=O)([O-])O)-c2nc(cs2)C(=O)NC(C(C)O)C(=O)NC(=C(C)OC)c2nc(cs2)C(=O)NC2c4nc(cs4)C(=O)NC(COC(=O)c4c5c6c(cccc6n4OCOP(=O)([O-])O)COC(=O)C(OC4CC(C)(O)C(N(C)C)C(C)O4)C2OC5)c2nc-3cs2)n1)C(N)=O.[Na+].[Na+] (stereo not drawn) [Example 22] | 0.25 | 0.125 | 0.015 |
| C=C(NC(=O)c1csc(-c2nc3c(cc2O)-c2nc(cs2)C(=O)NC(C(C)O)C(=O)NC(=C(C)OC)c2nc(cs2)C(=O)NC2c4nc(cs4)C(=O)NC(COC(=O)c4c5c6c(cccc6n4OCCCN(CC)CC)COC(=O)C(OC4CC(C)(O)C(N(C)C)C(C)O4)C2OC5)c2nc-3cs2)n1)C(N)=O (stereo not drawn) [Example 51] | 0.125 (≈ 0.0806 µM) | 0.5 (≈ 0.322 µM) | 0.015 (≈ 0.00967 µM) |
| C=C(NC(=O)c1csc(-c2nc3c(cc2O)-c2nc(cs2)C(=O)NC(C(C)O)C(=O)NC(=C(C)OC)c2nc(cs2)C(=O)NC2c4nc(cs4)C(=O)NC(COC(=O)c4c5c6c(cccc6n4OC(C)=O)COC(=O)C(OC4CC(C)(O)C(N(C)C)C(C)O4)C2OC5)c2nc-3cs2)n1)C(N)=O (stereo not drawn) [Example 23] | 0.25 (≈ 0.169 µM) | 0.03 (≈ 0.0203 µM) | 0.06 (≈ 0.0406 µM) |
| C=C(NC(=O)c1csc(-c2nc3c(cc2OCC(=O)OCCO)-c2nc(cs2)C(=O)NC(C(C)O)C(=O)NC(=C(C)OC)c2nc(cs2)C(=O)NC2c4nc(cs4)C(=O)NC(COC(=O)c4c5c6c(cccc6n4OCC(=O)OCCO)COC(=O)C(OC4CC(C)(O)C(N(C)C)C(C)O4)C2OC5)c2nc-3cs2)n1)C(N)=O (stereo not drawn) [Example 72] | 4.0 (≈ 2.44 µM) | 4.0 (≈ 2.44 µM) | 0.06 (≈ 0.0365 µM) |
| C=C(NC(=O)c1csc(-c2nc3c(cc2OCc2ccccc2)-c2nc(cs2)C(=O)NC(C(C)O)C(=O)NC(=C(C)OC)c2nc(cs2)C(=O)NC2c4nc(cs4)C(=O)NC(COC(=O)c4c5c6c(cccc6n4OCOCC[Si](C)(C)C)COC(=O)C(OC4CC(C)(O)C(N(C)C)C(C)O4)C2OC5)c2nc-3cs2)n1)C(N)=O (stereo not drawn) [Example 79] | 1.0 (≈ 0.603 µM) | 1.0 (≈ 0.603 µM) | 0.015 (≈ 0.00905 µM) |
| C=C(NC(=O)c1csc(-c2nc3c(cc2O)-c2nc(cs2)C(=O)NC(C(C)O)C(=O)NC(=C(C)OC)c2nc(cs2)C(=O)NC2c4nc(cs4)C(=O)NC(COC(=O)c4c5c6c(cccc6n4OCCCN)COC(=O)C(OC4CC(C)(O)C(N(C)C)C(C)O4)C2OC5)c2nc-3cs2)n1)C(N)=O (stereo not drawn) [Example 42] | 1.0 (≈ 0.669 µM) | 0.25 (≈ 0.167 µM) | 0.06 (≈ 0.0401 µM) |
| C=C(NC(=O)c1csc(-c2nc3c(cc2OCOP(=O)(OC(C)(C)C)OC(C)(C)C)-c2nc(cs2)C(=O)NC(C(C)O)C(=O)NC(=C(C)OC)c2nc(cs2)C(=O)NC2c4nc(cs4)C(=O)NC(COC(=O)c4c5c6c(cccc6n4OCOP(=O)(OC(C)(C)C)OC(C)(C)C)COC(=O)C(OC4CC(C)(O)C(N(C)C)C(C)O4)C2OC5)c2nc-3cs2)n1)C(N)=O (stereo not drawn) [Example 73] | 2.0 (≈ 1.06 µM) | 2.0 (≈ 1.06 µM) | 0.25 (≈ 0.133 µM) |
| C=C(NC(=O)c1csc(-c2nc3c(cc2OCCO)-c2nc(cs2)C(=O)NC(C(C)O)C(=O)NC(=C(C)OC)c2nc(cs2)C(=O)NC2c4nc(cs4)C(=O)NC(COC(=O)c4c5c6c(cccc6n4OCCO)COC(=O)C(OC4CC(C)(O)C(N(C)C)C(C)O4)C2OC5)c2nc-3cs2)n1)C(N)=O (stereo not drawn) [Example 77] | 1.0 (≈ 0.655 µM) | 0.5 (≈ 0.328 µM) | 0.03 (≈ 0.0197 µM) |
| C=C(NC(=O)c1csc(-c2nc3c(cc2O)-c2nc(cs2)C(=O)NC(C(C)O)C(=O)NC(=C(C)OC)c2nc(cs2)C(=O)NC2c4nc(cs4)C(=O)NC(COC(=O)c4c5c6c(cccc6n4OCCC(=O)[O-])COC(=O)C(OC4CC(C)(O)C(N(C)C)C(C)O4)C2OC5)c2nc-3cs2)n1)C(N)=O.[Na+] (stereo not drawn) [Example 44] | 0.25 | 0.125 | 0.03 |
| C=C(NC(=O)c1csc(-c2nc3c(cc2O)-c2nc(cs2)C(=O)NC(C(C)O)C(=O)NC(=C(C)OC)c2nc(cs2)C(=O)NC2c4nc(cs4)C(=O)NC(COC(=O)c4c5c6c(cccc6n4OCCCS(=O)(=O)[O-])COC(=O)C(OC4CC(C)(O)C(N(C)C)C(C)O4)C2OC5)c2nc-3cs2)n1)C(N)=O.[Na+] (stereo not drawn) [Example 7] | 0.125 | 0.125 | 0.007 |
| C=CCOc1cc2c(nc1-c1nc(C(=O)NC(=C)C(N)=O)cs1)-c1csc(n1)C1COC(=O)c3c4c5c(cccc5n3OCC=C)COC(=O)C(OC3CC(C)(O)C(N(C)C)C(C)O3)C(OC4)C(NC(=O)c3csc(n3)C(=C(C)OC)NC(=O)C(C(C)O)NC(=O)c3csc-2n3)c2nc(cs2)C(=O)N1 (stereo not drawn) [Example 74] | 0.25 (≈ 0.165 µM) | 0.06 (≈ 0.0395 µM) | 0.0005 (≈ 0.000329 µM) |
| C=C(NC(=O)c1csc(-c2nc3c(cc2OP(=O)(O)OCCCl)-c2nc(cs2)C(=O)NC(C(C)O)C(=O)NC(=C(C)OC)c2nc(cs2)C(=O)NC2c4nc(cs4)C(=O)NC(COC(=O)c4c5c6c(cccc6n4O)COC(=O)C(OC4CC(C)(O)C(N(C)C)C(C)O4)C2OC5)c2nc-3cs2)n1)C(N)=O (stereo not drawn) [Example 35] | 1.0 (≈ 0.633 µM) | 1.0 (≈ 0.633 µM) | 0.03 (≈ 0.019 µM) |
| C=C(NC(=O)c1csc(-c2nc3c(cc2OCC(=O)NCC#N)-c2nc(cs2)C(=O)NC(C(C)O)C(=O)NC(=C(C)OC)c2nc(cs2)C(=O)NC2c4nc(cs4)C(=O)NC(COC(=O)c4c5c6c(cccc6n4OCC(=O)NCC#N)COC(=O)C(OC4CC(C)(O)C(N(C)C)C(C)O4)C2OC5)c2nc-3cs2)n1)C(N)=O (stereo not drawn) [Example 70] | 0.5 (≈ 0.307 µM) | 4.0 (≈ 2.45 µM) | 0.06 (≈ 0.0368 µM) |
| C=C(NC(=O)c1csc(-c2nc3c(cc2O)-c2nc(cs2)C(=O)NC(C(C)O)C(=O)NC(=C(C)OC)c2nc(cs2)C(=O)NC2c4nc(cs4)C(=O)NC(COC(=O)c4c5c6c(cccc6n4OP(=O)(O)OCCCl)COC(=O)C(OC4CC(C)(O)C(N(C)C)C(C)O4)C2OC5)c2nc-3cs2)n1)C(N)=O (stereo not drawn) [Example 65] | 0.5 (≈ 0.316 µM) | 0.25 (≈ 0.158 µM) | 0.03 (≈ 0.019 µM) |
| C=C(NC(=O)c1csc(-c2nc3c(cc2OCC(=O)OC)-c2nc(cs2)C(=O)NC(C(C)O)C(=O)NC(=C(C)OC)c2nc(cs2)C(=O)NC2c4nc(cs4)C(=O)NC(COC(=O)c4c5c6c(cccc6n4OCC(=O)OC)COC(=O)C(OC4CC(C)(O)C(N(C)C)C(C)O4)C2OC5)c2nc-3cs2)n1)C(N)=O (stereo not drawn) [Example 19] | 0.125 (≈ 0.079 µM) | 0.06 (≈ 0.0379 µM) | 0.003 (≈ 0.0019 µM) |
| C=C(NC(=O)c1csc(-c2nc3c(cc2OC)-c2nc(cs2)C(=O)NC(C(C)O)C(=O)NC(=C(C)OC)c2nc(cs2)C(=O)NC2c4nc(cs4)C(=O)NC(COC(=O)c4c5c6c(cccc6n4OC)COC(=O)C(OC4CC(C)(O)C(N(C)C)C(C)O4)C2OC5)c2nc-3cs2)n1)C(N)=O (stereo not drawn) [Example 18] | 0.015 (≈ 0.0102 µM) | 0.007 (≈ 0.00478 µM) | 0.001 (≈ 0.000682 µM) |
| C=C(NC(=O)c1csc(-c2nc3c(cc2OC)-c2nc(cs2)C(=O)NC(C(C)O)C(=O)NC(=C(C)OC)c2nc(cs2)C(=O)NC2c4nc(cs4)C(=O)NC(COC(=O)c4c5c6c(cccc6n4O)COC(=O)C(OC4CC(C)(O)C(N(C)C)C(C)O4)C2OC5)c2nc-3cs2)n1)C(N)=O (stereo not drawn) [Example 1] | 0.015 (≈ 0.0103 µM) | 0.015 (≈ 0.0103 µM) | 0.003 (≈ 0.00207 µM) |
| C=C(NC(=O)c1csc(-c2nc3c(cc2OC(=O)c2ccc(Br)cc2)-c2nc(cs2)C(=O)NC(C(C)O)C(=O)NC(=C(C)OC)c2nc(cs2)C(=O)NC2c4nc(cs4)C(=O)NC(COC(=O)c4c5c6c(cccc6n4O)COC(=O)C(OC4CC(C)(O)C(N(C)C)C(C)O4)C2OC5)c2nc-3cs2)n1)C(N)=O (stereo not drawn) [Example 32] | 1.0 (≈ 0.617 µM) | 1.0 (≈ 0.617 µM) | 0.015 (≈ 0.00926 µM) |
